≈ marks a conversion by molar mass, not a printed value.

The subject of this assay is MCF7. Put plainly: Cytotoxicity against Homo sapiens (human) MCF7 cells after 48 hr by SRB assay. In kind it is functional, cell-based. The note with it: MCF7, 48 h.
Turning to `O=C(NS(=O)(=O)c1ccc(Cl)cc1)n1cnc2ccccc2c1=O`, half-maximal inhibition (IC50) required 3.74 µg/mL (≈ 10.3 µM).

`c1ccc(-c2nnc(Nc3ncnc4ccccc34)s2)cc1` had a half-inhibitory concentration (IC50) of 3.61 µg/mL (≈ 11.8 µM).

`c1ccc2c(Nc3ccc(Nc4ncnc5ccccc45)cc3)ncnc2c1` gave an IC50 of 0.06 µg/mL (≈ 0.165 µM).

Consider `N=C(N)NS(=O)(=O)c1ccc(NC2=NS(=O)(=O)c3ccccc32)cc1`, for which half-maximal inhibition (IC50) was put at 4.3 µg/mL (≈ 11.3 µM).

For the compound `Cc1ccc(S(=O)(=O)NC(=O)n2cnc3ccccc3c2=O)cc1`, inhibition was half-maximal at 3.96 µg/mL (≈ 11.5 µM) (IC50). The IC50 values of the last two compounds are within 1.5-fold of each other.

As for `NS(=O)(=O)c1ccc(NNc2ncnc3ccccc23)cc1`, the IC50 was 1.13 µg/mL (≈ 3.58 µM).

Consider `NS(=O)(=O)c1ccc(NNC2=NS(=O)(=O)c3ccccc32)cc1`, for which the IC50 is 3.73 µg/mL (≈ 10.6 µM).

In the case of `Cc1ccc(S(=O)(=O)NC(=O)N2C(=O)c3ccccc3S2(=O)=O)cc1`, the IC50 was found to be 5.65 µg/mL (≈ 14.9 µM).

Compound `N=C(N)NS(=O)(=O)c1ccc(NNC2=NS(=O)(=O)c3ccccc32)cc1` registered an IC50 of 4.35 µg/mL (≈ 11 µM).

`c1ccc2c(NCCNc3ncnc4ccccc34)ncnc2c1` returned a 50% inhibitory concentration (IC50) of 2.04 µg/mL (≈ 6.45 µM).

`NS(=O)(=O)c1ccc(Nc2ncnc3ccccc23)cc1` returned an IC50 of 2.4 µg/mL (≈ 7.99 µM). This IC50 and that of the compound before are within 1.5-fold of each other.

For the compound `O=C(NS(=O)(=O)c1ccc(Cl)cc1)N1C(=O)c2ccccc2S1(=O)=O`, the half-maximal inhibitory concentration (IC50) was 6.03 µg/mL (≈ 15 µM).

Turning to `O=S1(=O)N=C(Nc2ccc(NC3=NS(=O)(=O)c4ccccc43)cc2)c2ccccc21`, the IC50 was 2.76 µg/mL (≈ 6.29 µM).

Compound `O=S1(=O)N=C(Nc2cccc(NC3=NS(=O)(=O)c4ccccc43)c2)c2ccccc21` had an IC50 of 3.14 µg/mL (≈ 7.16 µM).

`O=S1(=O)N=C(Nc2nnc(-c3ccccc3)s2)c2ccccc21` showed a 50% inhibitory concentration (IC50) of 2.92 µg/mL (≈ 8.53 µM).

Consider `NS(=O)(=O)c1ccc(NC2=NS(=O)(=O)c3ccccc32)cc1`, for which the IC50 was 4.17 µg/mL (≈ 12.4 µM).

Take `N=C(N)NS(=O)(=O)c1ccc(Nc2ncnc3ccccc23)cc1`: the midpoint of inhibition, the IC50, lay at 1.85 µg/mL (≈ 5.4 µM). Against the preceding compound, the IC50 is about 2.3-fold lower.

The compound `O=S1(=O)N=C(NCCNC2=NS(=O)(=O)c3ccccc32)c2ccccc21` came in with a 50% inhibitory concentration (IC50) of 3.69 µg/mL (≈ 9.45 µM). This IC50 lies about 2-fold higher than the previous one.

The compound `N=C(N)NS(=O)(=O)c1ccc(NNc2ncnc3ccccc23)cc1` returned an IC50 of 1.65 µg/mL (≈ 4.62 µM).

Take `O=S1(=O)N=C(Nc2nnc(-c3ccc(Cl)cc3)s2)c2ccccc21`: it took 2.92 µg/mL (≈ 7.75 µM) to reach half-maximal inhibition (IC50).

Compound `Clc1ccc(-c2nnc(Nc3ncnc4ccccc34)s2)cc1` displayed an IC50 of 2.04 µg/mL (≈ 6 µM).

The compound `c1cc(Nc2ncnc3ccccc23)cc(Nc2ncnc3ccccc23)c1` registered a half-inhibitory concentration (IC50) of 2.04 µg/mL (≈ 5.6 µM).

In general, IC50 refers to the concentration needed to halve the response being measured.

Values taken from ChEMBL document CHEMBL3045780, “EGFR tyrosine kinase targeted compounds: synthesis, docking study, and in vitro antitumor activity of some new quinazoline and benzo[d]isothiazole derivatives” (Med Chem Res, 2011).
